Results published in PubChem BioAssay (NCI).
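A five-concentration, 48-hour dose response in 96-well plates underlies each endpoint, interpolated linearly between surrounding concentrations. GI50: concentration for 50% inhibition of growth. TGI: concentration producing complete growth inhibition.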

What was measured:
Test in all cases: NCI anticancer screen, dose series, 48 h
DU-145 prostate = test system: DU-145 prostate
HOP-62 NSCLC = test system: HOP-62 NSCLC
LOX IMVI melanoma = test system: LOX IMVI melanoma
NCI-H23 lung = test system: NCI-H23 lung
NCI-H460 lung = test system: NCI-H460 lung
U251 CNS = test system: U251 CNS
UACC-257 melanoma = test system: UACC-257 melanoma
NCI-H522 lung = test system: NCI-H522 lung
SF-539 CNS = test system: SF-539 CNS
SNB-75 CNS = test system: SNB-75 CNS

Compound	TGI (DU-145 prostate) [µM]	TGI (HOP-62 NSCLC) [µM]	TGI (LOX IMVI melanoma) [µM]	TGI (NCI-H23 lung) [µM]	TGI (NCI-H460 lung) [µM]	TGI (U251 CNS) [µM]	TGI (UACC-257 melanoma) [µM]	TGI (NCI-H522 lung) [µM]	TGI (SF-539 CNS) [µM]	GI50 (DU-145 prostate) [µM]	GI50 (HOP-62 NSCLC) [µM]	GI50 (LOX IMVI melanoma) [µM]	GI50 (NCI-H23 lung) [µM]	GI50 (NCI-H460 lung) [µM]	GI50 (SF-539 CNS) [µM]	GI50 (SNB-75 CNS) [µM]	TGI (SNB-75 CNS) [µM]	GI50 (U251 CNS) [µM]	GI50 (NCI-H522 lung) [µM]	GI50 (UACC-257 melanoma) [µM]
CCc1ccc(NC(=O)NC(=O)c2ccccc2[N+](=O)[O-])cc1Oc1ncc(Cl)cn1	> 100	75.3	14.5	> 100	0.0508	> 100	> 100	–	–	–	–	–	–	–	–	–	–	–	–	–
C/C=C(/I)CBr	–	43.4	36.2	31.4	37.4	–	–	4.35	32.5	–	–	–	–	–	–	–	–	–	–	–
CC[n+]1oc(C(=O)c2ccc(Cl)cc2)c(-c2ccccc2)c1-c1ccccc1.[Cl][Fe]([Cl])([Cl])[Cl]	75	> 100	> 100	> 100	> 100	> 100	15.5	–	> 100	18.9	29.7	1.82	45.7	43.2	> 100	30.4	> 100	6.63	–	–
COc1ccc(/C=C/C(=O)/C=C/c2cc3ccccc3[nH]c2=O)cc1	10.3	17.8	–	19.8	20	3.73	25.3	4.67	7.13	3.36	4.67	–	4.31	4.98	2.63	4.33	18.7	1.81	1.97	10.8
CC1=Nc2c(ccc3c2C(=O)c2ccccc2C3=O)NC(c2cccc3c2CCC3)C1 (configuration not stated)	–	> 100	> 100	> 100	> 100	> 100	> 100	> 100	> 100	–	–	–	–	–	–	–	> 100	–	–	–
Cc1ccccc1NC(=O)c1cc(-c2ccc([N+](=O)[O-])cc2)nc(=S)[nH]1	–	> 100	> 100	> 100	> 100	> 100	> 100	–	> 100	–	–	–	–	–	–	–	–	–	–	–
CCOC(=O)C(=O)Nc1ccccc1C	–	> 100	> 100	> 100	> 100	> 100	–	> 100	> 100	–	–	–	–	–	–	–	> 100	–	–	–
COc1ccc(OC)c(NC(=O)CCC/C(CC(=O)c2ccc(O)c(OC)c2)=N\Nc2nnc(C)n2N)c1	–	> 100	> 100	> 100	> 100	> 100	> 100	> 100	> 100	–	–	–	–	–	–	–	> 100	–	–	–
N#Cc1ccccc1C(Cl)(Cl)c1cnccn1	–	> 100	61	> 100	> 100	> 100	> 100	38.4	> 100	–	–	–	–	–	–	–	–	–	–	–
CC(C)(C)c1cc(C(O)(C(F)(F)F)C(F)(F)F)c2c(c1)C(C(F)(F)F)(C(F)(F)F)OC(C)(C(C)(C)C)N2 (configuration not stated)	–	–	–	7.41	9.25	10.9	27.4	5.24	–	–	–	–	–	–	–	–	8.96	–	–	–
O=C(O)c1ccc(NCn2nc(-c3ccccc3O)oc2=S)cc1	–	> 100	38.3	> 100	> 100	> 100	> 100	> 100	–	–	47.2	19.9	50.7	40.5	–	–	–	43.1	> 100	> 100
COC(=O)/C=C(C)/C=C/C1OC(C)OCC1O (configuration not stated)	–	> 100	> 100	> 100	> 100	> 100	> 100	> 100	> 100	–	–	–	–	–	–	–	–	–	–	–
COc1ccc(NC(=O)/C(=C/c2ccccc2)C(C)=O)cc1	–	32.3	27.8	–	62.5	29.4	29.3	4.6	28.7	–	–	–	–	–	–	–	21	–	–	–
CC(Oc1ccc2c(-c3ccccc3)cc(=O)oc2c1)C(=O)O (configuration not stated)	–	> 100	> 100	> 100	> 100	> 100	> 100	> 100	> 100	–	–	–	–	–	–	–	> 100	–	–	–
CCOC(=O)c1cc2cc3c4c(c2oc1=O)CCCN4CCC3	> 100	> 100	62.7	> 100	> 100	> 100	> 100	45.6	58.2	–	–	–	–	–	–	–	–	–	–	–
O=C(Cc1nc2ccccc2c(=O)n1-c1ccccc1Cl)c1ccncc1	–	> 100	> 100	> 100	> 100	> 100	> 100	> 100	> 100	–	–	–	–	–	–	–	71.7	–	–	–
